Assay results from patent publication US9533049B2, “Method for preparing nanoparticles based on functional amphiphilic molecules or macromolecules, and the use thereof” (UNIVERSITE VICTOR SEGALEN BOURDEAUX 2, priority 2007, dated 2017).

Tests used:
Format in all cases: cell-based
IGROV1 cells [1] = assay: Assay of intracellular cis-platin (ICP optical assay after cell lysis); conditions: 10^6 cells, 100 μM, 2 h
Experimental: IGROV1 cells (ovarian adenocarcinoma line) at 80% confluence (dish 10 cm in diameter) are treated with 100 μM of free cis-platin or cis-platin encapsulated in the nanoparticles of Example 16 for 2, 4 or 6 h. On completion of this treatment two washings with PBS are carried out. The cells are treated with trypsin and resuspended in PBS. Two washings of the cell suspensions with PBS are carried out (centrifugation 1000 rpm/1 min). The cells are suspended in 1 mL of PBS and counted.
10^6 cells are lysed with 500 μL of the cell lysis solution (lysis buffer from SIGMA). The volume is topped up to 5 mL with milli-Q water with 1% HNO3 acid.

[2] = test system: human cancer cell line HCT8 (colorectal adenocarcinoma); assay: Cytotoxicity, crystal violet staining, HCT8 line; conditions: HCT8, short exposure 30 min in physiological serum; preliminary results
Experimental: The test implemented uses the human cancer cell line HCT8 (colorectal adenocarcinoma), known for its intrinsic resistance to platinum derivatives.
The protocol is as follows: • […], the cells are implanted in 96-well plates at a density of 50,000 cells per well. • On D0, the cells are treated by the formulation test, either for a short exposure period (30 min) in physiological serum, or for a long exposure period (72 h) in culture medium. The range of concentrations produced comprises the points 0-0.4-0.8-1.5-3-6.25-12.5-25-50 and 100 mg/L. Negative controls (untreated cells) and positive controls (cis-platin) were carried out simultaneously. • On D3, the culture medium is changed, and the 72 h treatment stopped. • On D6, the protocol is completed, and the cells remaining at the bottom of the well are stained with crystal violet.
(§1) The survival of the cells was determined, and the overall percentage of death (or cytotoxicity) obtained at the different test formulation concentrations was compared with that obtained with the negative controls (untreated cells). The cytotoxicity results were presented in the form of dose-effect curves characterized by their inhibitory concentration 50 (IC50), i.e. the concentration at which 50% dead cells are observed.

IGROV1 cells [3] = assay: Cytotoxicity, MTS colorimetric assay (Example 21); conditions: IGROV1, incubation time 24 h
Experimental: 1000 to 5000 IGROV1 cells are incubated in 100 μL of medium with serum per well (96-well plate). After 24 h the medium is removed and the cells are treated for 1 to 3 days with the formulations according to the invention and/or free cis-Pt (at the desired concentrations). The cells are incubated at 37° C. in 200 μL of medium with serum.
as §1, with “different” for “different test formulation”, “concentrations of formulations tested” for “concentrations”

[4] = test system: SKOV3 (ovarian adenocarcinoma line, resistant to cis-platin); assay: Cytotoxicity, MTS assay (Example 22), SKOV3; conditions: SKOV3, treatment 24 hours in medium without serum, MTS 48 hours after washing; read-out: concentration necessary to obtain 50% cell death (IC50)
Experimental: (§2) 2500 cells (IGROV1, SKOV3, ovarian adenocarcinoma lines) per well are incubated in 100 μL of the medium with serum in a 96-well plate. After 24 hours the medium is aspirated and the cells are treated with free cis-platin or cis-platin encapsulated in the nanoparticles of Example 16 in 100 μL of the medium without serum at different concentrations (500, 100, 10, 1, 0.1, 0.01, 0.001 μM). After treatment for 24 hours, the medium is removed and the cells are washed twice with 100 μL of PBS then incubated with 100 μL of the medium with serum.
(§3) The absorbance at 490 nm is measured after incubation for 2 to 4 hours at 37° C. The absorbance is proportional to the cell viability.

[5] = test system: IGROV1 (ovarian adenocarcinoma line, sensitive to cis-platin); assay: Cytotoxicity, MTS assay (Example 22), IGROV1; conditions: IGROV1, treatment 24 hours in medium without serum, MTS 48 hours after washing; read-out: concentration necessary to obtain 50% cell death (IC50)
Experimental: as §2, §3

Q: What does the source list for N.N.[Cl][Pt][Cl] [cis-platin]?
A: cis-platin internalized (IGROV1 cells [1]): 0.5 nmol; IC50 (mg/L) [2]: IC50 > at 100 mg/L; IC50 Expressed (IGROV1 cells [3]; mg/L of cis-platin): 9.48 µg/mL; IC50 (IGROV1 cells [3]; read-out: IC50 Expressed): 31.6 µM; IC50 [4]: 4.3 µM; IC50 [5]: 2.41 µM
